What was measured:
circulating tumor cells = settings: patients having a castration-resistant type cancer; cited from earlier work
CaMKKβ protein = assay: Western blot of CaMKKβ protein in prostate cancer cells; assay type: cell-based, human; settings: R1881 0.01, 0.1, 1, 10 nM, 24 h
Protocol: (§1) FIG. 1. Androgens increase CaMKKβ levels in an AR-dependent manner. LNCaP or VCaP cells were treated for 24 h with vehicle or increasing concentrations of the synthetic androgen R1881 (A—0.1, 1, and 10 nM; B—0.01, 0.1, 1, and 10 nM). A, after treatment, cells were lysed, and RNA was isolated and reversed transcribed. The expression of CaMKKβ was assessed using qPCR. B, after treatment, cells were subjected to western blot analysis and subsequent densitometry (top). CaMKKβ protein levels were normalized to GAPDH loading control. A and B, results are expressed as fold induction over vehicle-treated cells+SE (n=3). *, significant changes from vehicle-treated cells. C, LNCaP cells were transiently transfected with mock or Stealth siRNAs targeting a negative control (siLacZ) or CaMKKβ (#1-3). Two days later, cells were treated for 24 h+/−10 nM R1881. Whole-cell extracts were subjected to western blot analysis and densitometry (top) as described in B. *, significant changes from mock-transfected cells. D, LNCaP cells were transfected as described in C with mock or Stealth siRNAs targeting LacZ or AR and treated for 24 h. The expression of CaMKKβ was assessed as in A using qPCR.
(§2) Western blot analysis. […] For each sample, protein levels were determined by densitometry using the ImageJ software (NIH) and normalizing to indicated controls.

CaMKKβ mRNA = assay: qPCR of CaMKKβ mRNA in prostate cancer cells; assay type: cell-based, human; settings: for CaMKKβ mRNA levels: R1881 0.1, 1, 10 nM, 24 h
Protocol: as §1
FIG. 9. Identification of the ARE that regulates CaMKKβ expression. A, LNCaP cells were pretreated for 1 h with vehicle or 1 mg/mL cycloheximide followed by vehicle or 10 nM R1881 for 24 h. CaMKKβ or CXCR4 mRNA levels were quantified using qPCR. Results are expressed as fold induction over vehicle (no R1881)-treated cells±SE (n=3). *, significant changes from vehicle-treated cells. B, LNCaP cells were treated with vehicle (V) or 10 nM R1881 for 1 or 4 h. Cross-linked chromatin was immunoprecipitated with indicated antibodies. […]
(§3) RNA isolation, cDNA preparation, and quantitative and standard reverse transcription (RT)-PCR. RNA isolation, cDNA preparation and quantitative RT-PCR (qPCR) were performed as previously described using 36B4 as a control (12). […]

[1] = tested on: AR binding region ~2.3 kb upstream of the CaMKKβ transcriptional start site; assay: Chromatin immunoprecipitation of AR at the CaMKKβ upstream region; assay type: cell-based, human; settings: LNCaP; 10 nM R1881 for 1 or 4 h
Protocol: (§4) FIG. 9. Identification of the ARE that regulates CaMKKβ expression. A, LNCaP cells were pretreated for 1 h with vehicle or 1 mg/mL cycloheximide followed by vehicle or 10 nM R1881 for 24 h. CaMKKβ or CXCR4 mRNA levels were quantified using qPCR. Results are expressed as fold induction over vehicle (no R1881)-treated cells±SE (n=3). *, significant changes from vehicle-treated cells. B, LNCaP cells were treated with vehicle (V) or 10 nM R1881 for 1 or 4 h. Cross-linked chromatin was immunoprecipitated with indicated antibodies. The precipitated DNA was amplified using primers spanning a region identified using ChIP on Chip data as a potential AR-binding site (indicated in top schematic) or a distal upstream region (negative control). The results are presented as percent input±SE (n=3). *, significant changes from IgG controls. C, various enhancer luciferase reporter constructs (depicted in top model) were transfected into LNCaP cells and treated overnight+/−10 nM R1881. After treatment, cells were harvested and assayed for luciferase activity. Luciferase values were normalized to β-galactosidase control. Data are the mean relative light units (RLUs)+SEM for one representative experiment performed in triplicate (n=3). *, significant changes from vehicle-treated cells. […]

distant metastases = settings: prostate cancer patients, clinical trials; cited from earlier work
CXCR4 mRNA = assay: qPCR of CXCR4 mRNA in LNCaP cells; assay type: cell-based, human; settings: 1 h 1 mg/mL cycloheximide, then 10 nM R1881 24 h
Protocol: as §4, with “control.” for “control. Data are the mean relative light units (RLUs)+SEM for one representative experiment performed in triplicate (n=3). *, significant changes from vehicle-treated cells.”
as §3

LNCaP cells = assay: Boyden dual chamber migration assay; assay type: cell-based, human
Protocol: FIG. 7. CaMKKβ activity in the androgen-mediated migration and invasion of prostate cancer cells. A, LNCaP cells were plated in 96-well plates and grown for 3 d. […] On d 10, cells were lysed and the relative number of cells was measured with the fluorescent DNA binding dye FluoReporter Blue. Each sample was performed in triplicate, and results from a representative experiment are shown. […] Cells were then dissociated and reseeded into the top chamber for a Boyden migration or Matrigel extracellular matrix invasion assay. Fresh medium with the corresponding treatments was added to the top and bottom chambers while either no chemoattractant or 5% FBS (serum) was added to the bottom chamber. After 16 h, migrated cells were fixed, stained and counted in three different microscopic fields and added together. […] C top, LNCaP cells were transfected with indicated siRNAs. […] D right, LNCaP cells stably expressing either GAL4 (control) or CaMKKβ were subjected to a migration assay as described in B using +/-5% FBS as chemoattractant. The results are expressed as mean+SE (n=3). *, significant changes from LNCaP-GAL4 cells. D left, western blot confirming CaMKKβ […]expression. FIG. 11. Androgen-mediated migration occurs through a CaMKKβ-AMPK-dependent pathway. […] Results are expressed as fold induction/phosphorylation over double vehicle-treated cells+SE (n=3). *, significant changes from vehicle-treated cells. […] Results are expressed as fold induction/phosphorylation over LNCaP-GAL4 vehicle-treated cells+SE (n=3). *, significant changes from LNCaP-GAL4 vehicle-treated cells. […] The results are expressed as mean±SE (n=2). *, P<0.05 indicates significant changes from double vehicle-treated cells. ^#, P<0.05 indicates significant decreases from vehicle (no compound C)-treated cells. […] ACC is a direct target of AMPK and thus, was used as a readout of AMPK catalytic activity. […] Results are expressed as fold induction/phosphorylation over double vehicle-treated cells+SE (n=2). *, P<0.05 indicates significant changes from double vehicle-treated cells. […]

AMPK = assay: Western blot of phospho-ACC (readout of AMPK catalytic activity); assay type: cell-based, human; settings: LNCaP; 1 h 1, 10 or 40 mM compound C, overnight +/-10 nM R1881
Protocol: FIG. 13. AMPK and androgen-mediated prostate cancer cell migration. A, LNCaP cells were pretreated for 1 h with vehicle or increasing concentrations of compound C (10 or 40 mM) prior to overnight treatment+/−10 nM R1881 or 1 mM AICAR. Cells were then subjected to a migration assay as described in FIG. 7. The results are expressed as mean±SE (n=2). *, P<0.05 indicates significant changes from double vehicle-treated cells. ^#, P<0.05 indicates significant decreases from vehicle (no compound C)-treated cells. B, LNCaP cells were pretreated for 1 h with vehicle, 1, 10 or 40 mM compound C prior to overnight treatment+/−10 nM R1881. Cell lysates were then subjected to western blot analysis and subsequent densitometry (top). ACC is a direct target of AMPK and thus, was used as a readout of AMPK catalytic activity. Phospho-ACC (p-ACC) levels were normalized to total ACC. Results are expressed as fold induction/phosphorylation over double vehicle-treated cells+SE (n=2). *, P<0.05 indicates significant changes from double vehicle-treated cells. […]
as §2

CNC(=O)c1ccc(N2C(=S)N(c3ccc(C#N)c(C(F)(F)F)c3)C(=O)C2(C)C)cc1F [MDV3100]
number of circulating tumor cells in patients (circulating tumor cells): decreases the number of circulating tumor cells in approximately half of the treated patients

C[C@]1(O)CC[C@H]2[C@@H]3CCC4=CC(=O)CCC4=C3C=C[C@@]21C [R1881, Methyltrienolone]
CaMKKβ protein levels (CaMKKβ protein; LNCaP): dose-dependent increase | CaMKKβ protein levels (CaMKKβ protein; VCaP): dose-dependent increase | CaMKKβ mRNA levels (CaMKKβ mRNA; LNCaP): increased in a dose-dependent manner | CaMKKβ mRNA levels (CaMKKβ mRNA; VCaP): increased in a dose-dependent manner | AR recruitment to the CaMKKβ upstream region [1]: recruited to this region of the promoter within one hour

CC(C)C[C@H](NC(=O)[C@@H](COC(C)(C)C)NC(=O)[C@H](Cc1ccc(O)cc1)NC(=O)[C@H](CO)NC(=O)[C@H](Cc1c[nH]c2ccccc12)NC(=O)[C@H](Cc1cnc[nH]1)NC(=O)[C@@H]1CCC(=O)N1)C(=O)N[C@@H](CCCNC(=N)N)C(=O)N1CCC[C@H]1C(=O)NNC(N)=O [goserelin]
incidences of distant metastases (distant metastases): reduced incidences of distant metastases

C[C@@H]1C[C@@H]([C@H](O)CC2CC(=O)NC(=O)C2)C(=O)[C@@H](C)C1 [cycloheximide, Cycloheximide]
R1881-mediated increase in CaMKKβ mRNA levels (CaMKKβ mRNA; LNCaP, 1 h 1 mg/mL cycloheximide, then 10 nM R1881 24 h): did not block | expression of secondary androgen target genes (ex. CXCR4) (CXCR4 mRNA): inhibits the expression of secondary androgen target genes

NC(=O)c1ncn([C@@H]2O[C@H](CO)[C@@H](O)[C@H]2O)c1N [AICAR, 5-aminoimidazole-4-carboxamide 1-b-D-ribo-furanoside]
cell migration, treatment alone (LNCaP cells; overnight 1 mM AICAR, no androgen): sufficient to increase cell migration

c1cc(-c2cnn3cc(-c4ccc(OCCN5CCCCC5)cc4)cnc23)ccn1 [compound C]
androgen-mediated cell migration (LNCaP cells; 1 h pretreatment with compound C (10 or 40 mM), overnight 10 nM R1881): completely abolished androgen-mediated cell migration | AMPK kinase activity (phospho-ACC levels) (AMPK): inhibited its kinase activity

— US9999620B2, “CaMKK-β as a target for treating cancer” (Duke University, priority 2010, dated 2018)
